In patent US7666875B2, “Hydantoin compounds” (Eisai R&D Management Co., Ltd., priority 2005, dated 2010):

Biological target: T1, human T-bet (Homo sapiens, UniProt Q9UL17)
T1 construct: expressed in transfected cells; host or cells: engineered HEK cells (HEKT-bet)
T1 sequence (Q9UL17 1-535): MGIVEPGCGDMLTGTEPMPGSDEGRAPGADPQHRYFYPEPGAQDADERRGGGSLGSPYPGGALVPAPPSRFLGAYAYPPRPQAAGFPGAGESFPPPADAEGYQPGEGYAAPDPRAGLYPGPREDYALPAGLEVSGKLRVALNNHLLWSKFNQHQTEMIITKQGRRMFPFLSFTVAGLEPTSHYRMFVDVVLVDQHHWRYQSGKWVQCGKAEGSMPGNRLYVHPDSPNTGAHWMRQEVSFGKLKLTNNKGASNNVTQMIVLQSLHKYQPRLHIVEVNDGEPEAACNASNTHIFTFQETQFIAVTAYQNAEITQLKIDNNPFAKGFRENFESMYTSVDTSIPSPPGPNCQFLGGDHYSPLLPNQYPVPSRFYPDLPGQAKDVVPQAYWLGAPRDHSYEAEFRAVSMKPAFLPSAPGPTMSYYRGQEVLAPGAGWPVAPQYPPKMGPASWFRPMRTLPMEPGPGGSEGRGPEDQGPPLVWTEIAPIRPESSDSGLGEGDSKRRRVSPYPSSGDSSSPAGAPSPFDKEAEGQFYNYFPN
Experiment: HEKT-bet-luc assay (T-bet dependent luciferase reporter in engineered HEK cells)
Format: cell-based
Details: Table 4; HEKT-bet cells, compound 24 hours; IC50 normalized to reference ER-213038; read-out: IC50
Experimental: HEKT-bet-luc assay: This assay measures a T-bet dependent reporter (luciferase) activity in engineered HEK cells that express a human T-bet and a T-box responsive element driving luciferase reporter. HEKT-bet cells were plated at 2×10^4/well in 96-well plate and compound was added into cell culture for 24 hours. Luciferase activity was measured by adding 50 μl of Steady-Glo reagent (Promega) and samples were read in Victor V reader (PerkinElmer). The IC50 values were calculated utilizing a maximum value corresponding to the amount of luciferase in the absence of a test compound and a minimum value corresponding to a test compound value obtained at maximum inhibition.
Determination of Normalized HEKT-bet IC50 values: Compounds were assayed in microtiter plates. Each plate included a reference compound which was ER-213038. The un-normalized IC50 value for a particular compound was divided by the IC50 value determined for the reference compound in the same microtiter plate to provide a relative potency value. The relative potency value was then multiplied by the established potency of the reference compound to provide the normalized HEKT-bet IC50 value. […] The IC50 values provided herein were obtained using this normalization method.

In order of falling IC50:
1. O=C1N(C/C=C/c2ccccc2)C(=O)C2(CCN(Cc3cccc4ccccc34)CC2)N1Cc1ccccn1 [Example 240]  420 nM
2. COCCN1C(=O)N(Cc2cccc(OC)c2)C(=O)C12CCN(Cc1cccc(OC)c1)CC2 [Example 239]  417 nM
3. COCCN1C(=O)N(Cc2cc(OC)cc(OC)c2)C(=O)C12CCN(Cc1cccc(OC)c1)CC2 [Example 237]  414 nM
4. COCCN1C(=O)N(Cc2cccc(OC)c2)C(=O)C12CCN(Cc1cccc(-c3ccc(NC(C)=O)cc3)c1)CC2 [Example 238]  414 nM
5. COCCN1C(=O)N(Cc2ccc(OC(F)(F)F)cc2)C(=O)C12CCN(Cc1ccccc1)CC2 [Example 236]  395 nM
6. COCCN1C(=O)N(Cc2cccc(OC)c2)C(=O)C12CCN(Cc1cccc(Cl)c1)CC2 [Example 235]  390 nM
7. COCCN1C(=O)N(Cc2cccc(OC)c2)C(=O)C12CCN(Cc1ccccc1)CC2 [Example 234]  387 nM
8. COCCN1C(=O)N(Cc2cccc(OC)c2)C(=O)C12CCN(Cc1cccc(C)c1)CC2 [Example 233]  386 nM
9. COc1cccc(CN2C(=O)N(Cc3ccc4c(c3)nnn4C)C3(CCN(Cc4cccc5ccccc45)CC3)C2=O)c1 [Example 231]  385 nM
10. COCCN1C(=O)N(CCCOc2ccccc2)C(=O)C12CCN(Cc1ccc3ccccc3c1)CC2 [Example 232]  385 nM
11. COCCN1C(=O)N(Cc2cccc(OC)c2)C(=O)C12CCN(Cc1cccc(N3CCOCC3)c1)CC2 [Example 230]  379 nM
12. COc1cccc(CN2C(=O)N(Cc3cccc(-n4cccc4)c3)C3(CCN(Cc4cccc5ccccc45)CC3)C2=O)c1 [Example 229]  377 nM
13. COCCN1C(=O)N(Cc2cccc(OC)c2)C(=O)C12CCN(Cc1ccc(C)cc1C)CC2 [Example 228]  374 nM
14. COCCN1C(=O)N(Cc2cccc(OC)c2)C(=O)C12CCN(Cc1cccc(N3CCCCC3)c1)CC2 [Example 225]  373 nM
15. COCCN1C(=O)N(C/C=C/c2ccccc2C)C(=O)C12CCN(Cc1ccccc1)CC2 [Example 226]  373 nM
16. COCCN1C(=O)N(Cc2cccc(OC)c2)C(=O)C12CCN(Cc1cc3ccccc3nc1Cl)CC2 [Example 227]  373 nM
17. O=C1N(C/C=C/c2ccccc2)C(=O)C2(CCN(Cc3cccc4ccccc34)CC2)N1Cc1ccncc1 [Example 223]  371 nM
18. COCCN1C(=O)N(Cc2cccc(OC)c2)C(=O)C12CCN(Cc1cccc(-c3ccc(S(C)(=O)=O)cc3)c1)CC2 [Example 224]  371 nM
19. COCCN1C(=O)N(CCCc2ccccc2OC)C(=O)C12CCN(Cc1ccccc1)CC2 [Example 222]  366 nM
20. CCN1C(=O)N(CCCc2ccccc2)C(=O)C12CCN(Cc1cc(OC)cc(OC)c1)CC2 [Example 221]  365 nM
21. COCCN1C(=O)N(Cc2cccc(OC)c2)C(=O)C12CCN(Cc1ccc(OC)c(OC)c1C)CC2 [Example 219]  362 nM
22. COCCN1C(=O)N(CCCOc2ccccc2)C(=O)C12CCN(Cc1cccc(OC)c1)CC2 [Example 220]  362 nM
23. COCCN1C(=O)N(Cc2cccc(OC)c2)C(=O)C12CCN(Cc1cccc(-c3ccncc3)c1)CC2 [Example 218]  351 nM
24. CCN1C(=O)N(CCCOc2ccccc2)C(=O)C12CCN(Cc1cc(OC)cc(OC)c1)CC2 [Example 217]  350 nM
25. COc1cccc(CN2C(=O)N(CCCO)C3(CCN(Cc4cccc5ccccc45)CC3)C2=O)c1 [Example 216]  349 nM
26. COCCN1C(=O)N(Cc2cc(OC)ccc2OC)C(=O)C12CCN(Cc1cc(OC)cc(OC)c1)CC2 [Example 215]  348 nM
27. CCN1C(=O)N(Cc2ccc3ccccc3c2)C(=O)C12CCN(Cc1cccc(OC)c1)CC2 [Example 214]  344 nM
28. COCCN1C(=O)N(Cc2cccc(OC)c2)C(=O)C12CCN(Cc1ccc3ccccc3c1)CC2 [Example 213]  337 nM
29. COCCN1C(=O)N(Cc2cccc(OC)c2)C(=O)C12CCN(Cc1ccc(C)c(C)c1)CC2 [Example 212]  336 nM
30. COc1cccc(CN2C(=O)N(CCn3cccc3)C3(CCN(Cc4cccc5ccccc45)CC3)C2=O)c1 [Example 211]  334 nM
31. COCCN1C(=O)N(Cc2cccc(OC)c2)C(=O)C12CCN(Cc1cccc3c1OCO3)CC2 [Example 210]  333 nM
32. COCCN1C(=O)N(Cc2cccc(OC)c2)C(=O)C12CCN(Cc1cc(-c3ccccc3)ccc1OC)CC2 [Example 209]  325 nM
33. COCCCN1C(=O)N(Cc2cc(OC)cc(OC)c2)C(=O)C12CCN(Cc1cc(OC)cc(OC)c1)CC2 [Example 207]  317 nM
34. COCCN1C(=O)N(CCCOc2ccccc2)C(=O)C12CCN(Cc1cccc(C)c1)CC2 [Example 208]  317 nM
35. COCN1C(=O)N(C/C=C/c2ccccc2)C(=O)C12CCN(Cc1cccc3ccccc13)CC2 [Example 206]  311 nM
36. O=C1N(C/C=C/c2ccccc2)C(=O)C2(CCN(Cc3cccc4ccccc34)CC2)N1CCO [Example 204]  298 nM
37. COCCN1C(=O)N(C/C=C/c2cccc(C)c2)C(=O)C12CCN(Cc1ccccc1)CC2 [Example 205]  298 nM
38. COCCN1C(=O)N(Cc2cccc(OC)c2)C(=O)C12CCN(Cc1cccc(OC(F)(F)F)c1)CC2 [Example 203]  291 nM
39. COc1cccc(CN2C(=O)N(Cc3cccc(OC)c3)C3(CCN(Cc4cc(OC)cc(OC)c4)CC3)C2=O)c1 [Example 202]  290 nM
40. COc1cc(CN2CCC3(CC2)C(=O)N(C/C=C/c2ccccc2)C(=O)N3Cc2cccc3cccnc23)cc(OC)c1 [Example 201]  288 nM
41. COc1cccc(CN2C(=O)N(CCO)C3(CCN(Cc4cc(OC)cc(OC)c4)CC3)C2=O)c1 [Example 200]  285 nM
42. COCCN1C(=O)N(Cc2cccc(OC)c2)C(=O)C12CCN(Cc1ccc(C)cc1C)CC2 [Example 199]  279 nM
43. CCN1C(=O)N(Cc2cccc(OC)c2)C(=O)C12CCN(Cc1ccc3ccccc3c1)CC2 [Example 197]  270 nM
44. COCCN1C(=O)N(Cc2ccccc2)C(=O)C12CCN(Cc1cc(OC)cc(OC)c1)CC2 [Example 196]  268 nM
45. COCCN1C(=O)N(CCCOc2ccccc2)C(=O)C12CCN(Cc1cc(OC)cc(OC)c1)CC2 [Example 195]  264 nM
46. COCCN1C(=O)N(Cc2cccc(OC)c2)C(=O)C12CCN(Cc1ccc(N(C)C)c3ccccc13)CC2 [Example 194]  262 nM
47. COCCN1C(=O)N(Cc2cccc(OC)c2)C(=O)C12CCN(Cc1ccccc1C)CC2 [Example 193]  261 nM
48. COCCN1C(=O)N(Cc2cccc(OC)c2)C(=O)C12CCN(Cc1c(C)c(C)cc(C)c1C)CC2 [Example 192]  260 nM
49. COCCN1C(=O)N(Cc2cccc(OC)c2)C(=O)C12CCN(Cc1cccc3ccccc13)CC2 [Example 191]  253 nM
50. COCCN1C(=O)N(C/C=C/c2ccc(C)cc2)C(=O)C12CCN(Cc1ccccc1)CC2 [Example 190]  251 nM
51. COCCN1C(=O)N(Cc2cccc(N(C)C)c2)C(=O)C12CCN(Cc1ccccc1)CC2 [Example 189]  247 nM
52. COCCN1C(=O)N(CCCc2ccccc2)C(=O)C12CCN(Cc1cc(OC)cc(OC)c1)CC2 [Example 188]  246 nM
53. COCCN1C(=O)N(Cc2ccc3ccccc3c2)C(=O)C12CCN(Cc1cccc3ccccc13)CC2 [Example 187]  243 nM
54. COCCN1C(=O)N(Cc2cccc(OC)c2)C(=O)C12CCN(Cc1c(C)cc(C)cc1C)CC2 [Example 186]  236 nM
55. CN1C(=O)N(C/C=C/c2ccccc2)C(=O)C12CCN(Cc1cccc3ccccc13)CC2 [Example 184]  235 nM
56. O=C1N(C/C=C/c2ccccc2)C(=O)C2(CCN(Cc3cccc4ccccc34)CC2)N1Cc1cccnc1 [Example 185]  235 nM
57. COCCN1C(=O)N(Cc2cc(OC)cc(OC)c2)C(=O)C12CCN(Cc1cc(OC)cc(OC)c1)CC2 [Example 183]  230 nM
58. O=C1N(C/C=C/c2ccccc2)C(=O)C2(CCN(Cc3cccc4ccccc34)CC2)N1Cc1ccc(-n2cccn2)cn1 [Example 182]  226 nM
59. COCCN1C(=O)N(Cc2cccc(OC)c2)C(=O)C12CCN(Cc1cccc(-c3ccccc3)c1)CC2 [Example 181]  225 nM
60. COCCN1C(=O)N(Cc2cccc(OC)c2)C(=O)C12CCN(Cc1cc3c(OC)cccc3cc1OC)CC2 [Example 180]  223 nM
61. COc1cccc(CN2C(=O)N(Cc3ccccn3)C3(CCN(Cc4cc(OC)cc(OC)c4)CC3)C2=O)c1 [Example 179]  215 nM
62. CCN1C(=O)N(Cc2ccc3ccccc3c2)C(=O)C12CCN(Cc1cc(OC)cc(OC)c1)CC2 [Example 177]  205 nM
63. COCCN1C(=O)N(Cc2cccc(OC)c2)C(=O)C12CCN(Cc1cccc(OC)c1)CC2 [Example 178]  205 nM
